According to ChEMBL document CHEMBL1201862, “PubChem BioAssay data set” (2004):
Calls of active or inactive are those of the source.

What was measured:
[1] = inhibitors of Vif binding to APOBEC3G peptide, primary screen, biochemical, TR-FRET, GST-Vif 1-94, biotin-A3G peptide, dose response retest (AID 1117319); type: functional;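 further: TR-FRET signal of purified GST-Vif binding a biotinylated A3G peptide; inhibitors lower the FRET signal by blocking Vif and A3G binding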
[2] = microbe, parasite or virus in culture; type: functional; details: Mycobacterium tuberculosis
[3] = target: Luciferin 4-monooxygenase (Photinus pyralis, UniProt P08659); assay: firefly luciferase enzyme inhibitors, dose response, biochemical, luminescence (AID 1891)
Luciferin 4-monooxygenase, sequence (P08659 whole entry): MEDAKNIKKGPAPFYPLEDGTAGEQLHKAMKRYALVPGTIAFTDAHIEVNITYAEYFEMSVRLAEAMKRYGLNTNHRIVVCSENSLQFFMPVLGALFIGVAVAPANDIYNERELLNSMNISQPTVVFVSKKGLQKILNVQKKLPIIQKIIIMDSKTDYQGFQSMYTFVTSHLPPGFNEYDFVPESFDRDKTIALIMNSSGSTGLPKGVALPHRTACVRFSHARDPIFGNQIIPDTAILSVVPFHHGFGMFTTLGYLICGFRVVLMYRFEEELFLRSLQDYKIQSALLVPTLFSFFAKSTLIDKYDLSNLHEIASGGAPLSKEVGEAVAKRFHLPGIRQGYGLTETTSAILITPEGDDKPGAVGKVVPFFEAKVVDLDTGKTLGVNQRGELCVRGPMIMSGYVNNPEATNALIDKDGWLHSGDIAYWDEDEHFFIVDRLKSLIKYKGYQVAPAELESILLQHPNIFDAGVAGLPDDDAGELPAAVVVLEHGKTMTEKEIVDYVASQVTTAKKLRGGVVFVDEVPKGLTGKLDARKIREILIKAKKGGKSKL

[4] = Luminescence Cell-Based Dose Confirmation HTS to Identify Inhibitors of Platelet Dense Granule Release. [Related pubchem assays: 1663 (Primary HTS), 1678 (Summary of Project)]; type: functional
[5] = target: T1, Neuropeptide Y receptor type 1 (Homo sapiens, UniProt P25929); type: functional;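 further: HEK293 cells with a CNG channel challenged with NPY then isoproterenol; potency as antagonist that reverses NPY suppression of cAMP signal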
T1 sequence (P25929 whole entry): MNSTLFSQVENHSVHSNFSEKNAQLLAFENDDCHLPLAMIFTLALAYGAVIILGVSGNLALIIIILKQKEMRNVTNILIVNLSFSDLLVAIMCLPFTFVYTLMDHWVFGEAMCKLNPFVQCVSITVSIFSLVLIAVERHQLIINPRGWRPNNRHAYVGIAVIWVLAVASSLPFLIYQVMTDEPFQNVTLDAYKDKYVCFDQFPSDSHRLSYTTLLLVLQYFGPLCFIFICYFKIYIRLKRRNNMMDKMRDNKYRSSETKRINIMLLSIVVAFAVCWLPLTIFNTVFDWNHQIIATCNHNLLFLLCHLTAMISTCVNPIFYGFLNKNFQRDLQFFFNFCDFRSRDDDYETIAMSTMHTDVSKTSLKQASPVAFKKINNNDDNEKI

[6] = target: T2, Neuropeptide Y receptor type 2 (Homo sapiens, UniProt P49146); type: functional, cell-based;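 further: HEK293 cells expressing the receptor and a CNG channel; stimulus was NPY near EC95 followed by isoproterenol to raise cAMP; antagonist potency measured as restoring cAMP signal that NPY suppresses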
T2 sequence (P49146 whole entry): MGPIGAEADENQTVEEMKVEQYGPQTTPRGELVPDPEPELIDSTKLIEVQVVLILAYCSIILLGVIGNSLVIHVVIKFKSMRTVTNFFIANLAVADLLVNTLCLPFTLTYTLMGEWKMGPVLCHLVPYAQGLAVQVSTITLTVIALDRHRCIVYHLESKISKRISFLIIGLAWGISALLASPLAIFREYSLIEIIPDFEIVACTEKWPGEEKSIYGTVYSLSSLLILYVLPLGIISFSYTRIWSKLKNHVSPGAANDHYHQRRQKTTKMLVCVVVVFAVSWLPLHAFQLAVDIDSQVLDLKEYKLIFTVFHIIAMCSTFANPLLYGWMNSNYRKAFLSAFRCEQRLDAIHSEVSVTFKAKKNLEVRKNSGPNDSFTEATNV

[7] = target: T3, Estrogen receptor (Homo sapiens, UniProt P03372);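 further: potency for inhibiting coactivator peptide recruitment to the receptor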
T3 sequence (P03372 whole entry): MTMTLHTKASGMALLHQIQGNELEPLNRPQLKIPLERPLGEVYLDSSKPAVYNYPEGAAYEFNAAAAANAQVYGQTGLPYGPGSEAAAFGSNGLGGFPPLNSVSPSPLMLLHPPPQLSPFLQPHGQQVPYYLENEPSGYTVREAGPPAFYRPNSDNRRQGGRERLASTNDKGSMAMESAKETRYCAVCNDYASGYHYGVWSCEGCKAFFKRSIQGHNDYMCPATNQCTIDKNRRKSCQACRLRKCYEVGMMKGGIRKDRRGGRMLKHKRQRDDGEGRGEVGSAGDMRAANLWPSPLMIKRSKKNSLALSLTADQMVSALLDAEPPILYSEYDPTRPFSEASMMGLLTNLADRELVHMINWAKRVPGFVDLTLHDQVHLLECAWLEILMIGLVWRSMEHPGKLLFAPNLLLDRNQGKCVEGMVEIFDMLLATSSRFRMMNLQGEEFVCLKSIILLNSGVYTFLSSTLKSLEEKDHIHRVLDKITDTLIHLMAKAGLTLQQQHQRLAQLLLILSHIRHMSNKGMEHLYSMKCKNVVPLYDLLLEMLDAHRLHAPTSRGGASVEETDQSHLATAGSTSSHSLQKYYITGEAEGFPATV

[8] = target: Estrogen receptor beta (Homo sapiens, UniProt Q92731);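 further: recombinant ER-beta bound to coactivator SRC1 peptide in presence of estradiol agonist; inhibitors block coactivator peptide binding and lower the FRET signal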
Estrogen receptor beta, sequence (Q92731 whole entry): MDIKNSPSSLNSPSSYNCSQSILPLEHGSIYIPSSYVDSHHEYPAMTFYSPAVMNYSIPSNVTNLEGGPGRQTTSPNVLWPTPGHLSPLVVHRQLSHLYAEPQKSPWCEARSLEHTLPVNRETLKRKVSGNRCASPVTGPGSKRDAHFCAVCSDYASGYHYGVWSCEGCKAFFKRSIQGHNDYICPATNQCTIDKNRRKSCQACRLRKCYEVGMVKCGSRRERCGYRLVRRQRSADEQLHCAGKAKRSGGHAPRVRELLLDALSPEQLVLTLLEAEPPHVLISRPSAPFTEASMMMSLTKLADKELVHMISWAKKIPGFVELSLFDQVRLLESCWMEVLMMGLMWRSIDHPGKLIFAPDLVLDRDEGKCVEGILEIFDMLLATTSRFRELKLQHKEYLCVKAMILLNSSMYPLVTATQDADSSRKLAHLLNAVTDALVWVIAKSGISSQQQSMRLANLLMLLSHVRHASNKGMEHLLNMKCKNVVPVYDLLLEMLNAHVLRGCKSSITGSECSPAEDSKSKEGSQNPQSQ

[9] = target: Cytochrome P450 3A4 (Homo sapiens, UniProt P08684); details: Potency;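 further: confirmatory qHTS run detecting inhibitors and substrates of CYP3A4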
Cytochrome P450 3A4, sequence (P08684 whole entry): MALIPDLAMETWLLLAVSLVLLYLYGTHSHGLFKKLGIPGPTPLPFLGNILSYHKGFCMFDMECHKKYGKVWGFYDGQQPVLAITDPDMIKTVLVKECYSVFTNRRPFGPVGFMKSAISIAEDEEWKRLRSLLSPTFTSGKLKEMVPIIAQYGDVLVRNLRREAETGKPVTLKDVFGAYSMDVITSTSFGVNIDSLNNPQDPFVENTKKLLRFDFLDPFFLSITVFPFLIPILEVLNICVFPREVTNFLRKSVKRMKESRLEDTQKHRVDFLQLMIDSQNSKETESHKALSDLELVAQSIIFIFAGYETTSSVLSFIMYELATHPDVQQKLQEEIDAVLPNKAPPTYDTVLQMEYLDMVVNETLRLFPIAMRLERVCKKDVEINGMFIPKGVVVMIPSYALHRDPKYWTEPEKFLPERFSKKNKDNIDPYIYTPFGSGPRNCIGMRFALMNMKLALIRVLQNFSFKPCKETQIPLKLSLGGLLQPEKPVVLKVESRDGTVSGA

[10] = target: Neurotensin receptor type 1 (Homo sapiens, UniProt P30989); type: functional;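 further: Image-based confirmatory dose-response assay measuring agonist activity at NTR1; NTR1-expressing U2OS osteosarcoma cells imaged for beta-arrestin GFP spot formation; agonist potency where compounds increase beta-arrestin recruitment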
Neurotensin receptor type 1, sequence (P30989 whole entry): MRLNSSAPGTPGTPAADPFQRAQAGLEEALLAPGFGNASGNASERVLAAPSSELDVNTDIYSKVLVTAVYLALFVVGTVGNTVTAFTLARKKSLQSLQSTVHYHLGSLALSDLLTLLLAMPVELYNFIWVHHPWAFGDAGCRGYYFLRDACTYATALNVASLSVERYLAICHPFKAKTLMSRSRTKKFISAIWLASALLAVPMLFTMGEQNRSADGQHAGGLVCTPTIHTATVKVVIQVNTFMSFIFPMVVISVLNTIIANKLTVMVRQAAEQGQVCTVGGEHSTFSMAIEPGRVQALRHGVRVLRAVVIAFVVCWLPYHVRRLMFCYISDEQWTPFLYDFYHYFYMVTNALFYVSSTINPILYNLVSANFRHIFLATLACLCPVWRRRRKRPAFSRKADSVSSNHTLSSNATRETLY

[11] = target: T4, Protein Tat (Human immunodeficiency virus type 1 group M subtype B (isolate HXB2)(HIV-1), UniProt P04608); type: functional;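 further: tat binding to TAR RNA read out by fluorescence polarization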
T4 sequence (P04608 whole entry): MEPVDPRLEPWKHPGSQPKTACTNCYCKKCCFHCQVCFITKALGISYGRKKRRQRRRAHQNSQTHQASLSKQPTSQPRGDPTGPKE

[12] = target: Cytochrome P450 2C19 (Homo sapiens, UniProt P33261); assay: Cytochrome panel assay with activity outcomes. Panel member name: p450-cyp2c19 Compounds with AC50 equal or less than 10 uM are considered active; type: functional
Cytochrome P450 2C19, sequence (P33261 whole entry): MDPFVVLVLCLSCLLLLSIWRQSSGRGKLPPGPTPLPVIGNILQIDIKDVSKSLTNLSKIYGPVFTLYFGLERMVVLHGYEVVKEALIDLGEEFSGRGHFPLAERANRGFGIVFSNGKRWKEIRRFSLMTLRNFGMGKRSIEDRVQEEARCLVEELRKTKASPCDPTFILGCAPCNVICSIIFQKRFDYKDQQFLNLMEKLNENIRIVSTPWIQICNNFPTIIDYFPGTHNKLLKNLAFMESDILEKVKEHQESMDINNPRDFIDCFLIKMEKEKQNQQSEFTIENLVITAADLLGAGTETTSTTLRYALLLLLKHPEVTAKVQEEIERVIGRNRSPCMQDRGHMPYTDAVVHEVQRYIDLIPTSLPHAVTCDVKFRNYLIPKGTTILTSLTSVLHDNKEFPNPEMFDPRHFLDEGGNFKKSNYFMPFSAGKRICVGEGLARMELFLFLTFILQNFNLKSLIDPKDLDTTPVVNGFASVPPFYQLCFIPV

[13] = target: Cytochrome P450 2C9 (Homo sapiens, UniProt P11712)
Cytochrome P450 2C9, sequence (P11712 whole entry): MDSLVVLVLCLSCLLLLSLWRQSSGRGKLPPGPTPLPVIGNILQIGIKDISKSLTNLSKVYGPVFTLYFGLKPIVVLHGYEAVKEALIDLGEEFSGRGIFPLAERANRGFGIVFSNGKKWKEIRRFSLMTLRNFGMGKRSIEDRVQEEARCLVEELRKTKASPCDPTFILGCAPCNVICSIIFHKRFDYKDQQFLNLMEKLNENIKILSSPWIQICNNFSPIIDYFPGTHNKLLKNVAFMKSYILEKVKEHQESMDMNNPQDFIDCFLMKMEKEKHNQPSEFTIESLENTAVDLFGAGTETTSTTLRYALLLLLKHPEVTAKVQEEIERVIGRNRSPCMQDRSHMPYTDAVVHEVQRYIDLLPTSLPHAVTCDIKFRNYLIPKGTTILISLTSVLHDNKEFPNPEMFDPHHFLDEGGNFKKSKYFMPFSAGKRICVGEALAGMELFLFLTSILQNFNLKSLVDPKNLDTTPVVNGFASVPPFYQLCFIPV

[14] = A Cell Based Secondary Assay To Explore Cytotoxicity of Compounds that Sensitize Mycobacterium Tuberculosis to Beta-Lactam Antibiotics.; type: functional

Q: For `Cc1ccc(C2SCC(=O)N2Cc2cn3ccsc3n2)o1` (stereo not given), which IC50 [1] is on record?
A: > 100 µM (active)

Q: Which CC50 [2] does the source give for `Cc1nc(N2CCC(C)CC2)c2oc3ccccc3c2n1` here?
A: > 40 µM (active)

Q: And the EC50 [3]?
A: 109 µM (active)

Q: What about the EC50 [4] of the same molecule?
A: > 112 µM (not active)

Q: And the IC50 [5]?
A: 7.23 µM (active)

Q: What about the IC50 [6] of the same molecule?
A: 5.77 µM (active)

Q: Which results are given for `O=C(CCC(=O)Nc1nnc(C2CCCCC2)s1)NCC1CCCO1` (stereo not given)?
A: IC50 [7]: > 50 µM (not active); IC50 [8]: > 50 µM (not active)

Q: Which AC50 [9] does the source give for `CCCCCCC1=Cc2cc(OC)c(OC)cc2C(C(C(C)=O)C(=O)OC)O1` (stereo not given) here?
A: 3.16 µM (inconclusive)

Q: For `O=C(CN(C(=O)c1ccc(Cl)cc1)N1C(=O)C2CCCCC2C1=O)c1ccc(Cl)cc1` (stereo not given), which EC50 [10] is on record?
A: 18 µM (active)

Q: Which IC50 [11] does the source give for `O=C1NC(=O)C(=CN2CCc3ccccc32)C(=O)N1` here?
A: > 100 µM (active)

Q: Which results are given for `COc1ccc(/C=C(/NC(C)=O)C(=O)O)cc1`?
A: AC50 [12]: 11.2 µM (inconclusive); IC50 [1]: > 100 µM (active); AC50 [13]: 10 µM (inconclusive)

Q: Which CC50 [14] does the source give for `COC(=O)c1c(CSc2cccc(C)c2)noc1C(=O)NCc1ccco1` here?
A: > 40 µM (active)

Q: Which IC50 [1] does the source give for `CCc1cc2c(CN3CCN(CC)CC3)cc(=O)oc2cc1O` here?
A: > 100 µM (active)

Q: With `C(#CC1C=CC2OC(c3ccccc3)OCC2O1)c1ccccc1` (stereo not given) as the molecule, how does the AC50 [9] read?
A: 2.51 µM (inconclusive)

Q: For `CC(C)c1ccc(Nc2nnc(SC3CCOC3=O)s2)cc1` (stereo not given), which EC50 [10] is on record?
A: 7.37 µM (active)

Q: What does the source list for `O=C(COC(=O)c1ccc(-c2ccccc2)cc1)Nc1ccccc1-c1ccccc1`?
A: IC50 [5]: 5.72 µM (active); IC50 [6]: 6.97 µM (active)
